Assay results published in patent US7713994B2 (Wyeth LLC, priority 2005, dated 2010).
Values belong to the compound of their own block, whether it stands above or below them.

Assays:
cyclin D1/cdk 4 enzyme = target: T1, cyclin D1/cdk 4 enzyme (Homo sapiens, UniProt P11802); test: CDK4 ELISA kinase assay (phospho-Rb ser 795 detection); format: biochemical; details: In Vitro Enzyme Assays, 200 μM ATP, read-out: CDK4 IC50
T1 construct: made in house; host or cells: Sf9 insect cells, recombinant baculovirus
T1 sequence (P11802 whole entry, species assumed): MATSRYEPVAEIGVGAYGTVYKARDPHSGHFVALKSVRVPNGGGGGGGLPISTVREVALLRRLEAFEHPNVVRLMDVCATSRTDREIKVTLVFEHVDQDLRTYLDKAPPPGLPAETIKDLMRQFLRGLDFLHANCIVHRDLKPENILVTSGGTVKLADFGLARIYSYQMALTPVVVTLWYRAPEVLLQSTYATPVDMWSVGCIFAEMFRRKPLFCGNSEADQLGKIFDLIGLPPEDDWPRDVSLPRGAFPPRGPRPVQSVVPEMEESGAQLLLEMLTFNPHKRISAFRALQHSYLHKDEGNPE
T1 sequence (P24385 whole entry partner, species assumed): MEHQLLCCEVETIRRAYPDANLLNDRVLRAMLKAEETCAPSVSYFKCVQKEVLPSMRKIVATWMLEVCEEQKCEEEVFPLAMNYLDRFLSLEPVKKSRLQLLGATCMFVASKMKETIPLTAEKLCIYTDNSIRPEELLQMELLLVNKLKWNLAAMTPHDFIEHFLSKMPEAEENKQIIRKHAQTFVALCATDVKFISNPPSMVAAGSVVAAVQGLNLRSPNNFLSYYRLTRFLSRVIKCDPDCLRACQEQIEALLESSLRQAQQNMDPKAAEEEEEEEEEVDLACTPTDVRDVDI
Outline: (§1)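 Inhibition was derived from A450 relative to control wells lacking compound, following an anti-phospho-Rb Ser795 sandwich of HRP detection. The reactions combined coated GST-Rb fragment, 200 μM ATP and baculovirus-expressed cyclin/CDK enzymes, incubated for 1 h at 30° C.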

cyclin E/CDK2 enzyme = target: T2, cyclin E/CDK2 enzyme (Homo sapiens, UniProt P24941); test: CDK2 ELISA kinase assay (phospho-Rb ser 795 detection); format: biochemical; details: In Vitro Enzyme Assays, read-out: CDK2 IC50
T2 construct: made in house; host or cells: Sf9 insect cells, recombinant baculovirus
Outline: as §1

cyclin B/CDK1 enzyme = target: T3, cyclin B/CDK1 enzyme (Homo sapiens, UniProt P06493); test: CDK1 ELISA kinase assay (phospho-Rb ser 795 detection); format: biochemical; details: In Vitro Enzyme Assays, read-out: CDK1 IC50
T3 construct: purchased New England BioLabs; host or cells: Sf9 insect cells, recombinant baculovirus
T3 sequence (P06493 whole entry): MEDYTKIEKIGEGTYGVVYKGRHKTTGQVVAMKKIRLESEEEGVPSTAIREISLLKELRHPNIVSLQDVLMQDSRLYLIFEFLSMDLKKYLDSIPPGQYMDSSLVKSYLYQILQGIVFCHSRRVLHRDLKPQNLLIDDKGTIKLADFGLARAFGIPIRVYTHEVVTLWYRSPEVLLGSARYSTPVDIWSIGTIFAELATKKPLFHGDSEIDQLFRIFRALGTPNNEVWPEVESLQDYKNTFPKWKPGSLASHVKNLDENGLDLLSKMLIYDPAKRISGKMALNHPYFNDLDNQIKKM
T3 sequence (P14635 whole entry partner): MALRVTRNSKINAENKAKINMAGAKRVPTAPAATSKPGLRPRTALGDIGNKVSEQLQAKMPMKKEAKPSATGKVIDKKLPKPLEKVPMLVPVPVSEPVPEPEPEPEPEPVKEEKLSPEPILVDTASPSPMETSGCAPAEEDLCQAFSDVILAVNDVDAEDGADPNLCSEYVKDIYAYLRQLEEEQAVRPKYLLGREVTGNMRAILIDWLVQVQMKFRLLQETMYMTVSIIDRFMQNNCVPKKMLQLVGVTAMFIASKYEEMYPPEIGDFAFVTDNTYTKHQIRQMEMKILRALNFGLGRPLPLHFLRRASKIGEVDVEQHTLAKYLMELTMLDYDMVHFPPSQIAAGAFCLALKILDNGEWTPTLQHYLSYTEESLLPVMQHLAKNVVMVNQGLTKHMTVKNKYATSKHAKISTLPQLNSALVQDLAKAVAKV
Outline: as §1

BT474 = test: Cytotoxicity assay (SRB), BT474; format: cell-based; details: Homo sapiens, BT-474, 144 h, BT474 cells, SRB, 6 days; read-out: In Vitro Cellular Activity IC50 BT474
Outline: (§2)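 BT474 (12000 cells/well) was treated for 6 days, whereas HCT-116 (4000), LoVo (6000) and MCF-7 (6000) were treated for 3 days, all in RPMI 1640 containing 5% FBS. Surviving-cell percentage came from SRB dye binding measured at 540 nm.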

HCT-116 = test: Cytotoxicity assay (SRB), HCT-116; format: cell-based; details: Homo sapiens, HCT-116, 72 h, HCT116 cells, SRB, three days; read-out: In Vitro Cellular Activity IC50 HCT116
Outline: as §2

LoVo = test: Cytotoxicity assay (SRB), LoVo; format: cell-based; details: Homo sapiens, LoVo, 72 h, LoVo cells, SRB, three days; read-out: In Vitro Cellular Activity IC50 LOVO
Outline: as §2

MCF-7 = test: Cytotoxicity assay (SRB), MCF-7; format: cell-based; details: Homo sapiens, MCF7, 72 h, MCF-7 cells, SRB, three days; read-out: In Vitro Cellular Activity IC50 MCF-7
Outline: as §2

SK-UT-1B = test: In Vitro Cellular Activity (Table III), SK-UT-1B; format: cell-based; details: Homo sapiens, Skut1B; SK-UT-1B cells
IGF1-receptor kinase = target: T4, IGF1-receptor kinase (Homo sapiens, UniProt P08069); test: IGF1-R kinase assay (96-well FRET Lance); format: biochemical; details: for IC50: 100 micromolar ATP, read-out: Igfr ic50; for inhibition at 10 µM: 10 uM compound, read-out: Igfr % Inhibition at 10 uM
T4 construct: Purified GST-IGFR; purified Bis-IGFR and Tris-IGFR; fused on or other part: GST with a thrombin cleavage site, removed in the Bis-IGFR and Tris-IGFR forms
T4 sequence (P08069 999-1274 limits assumed): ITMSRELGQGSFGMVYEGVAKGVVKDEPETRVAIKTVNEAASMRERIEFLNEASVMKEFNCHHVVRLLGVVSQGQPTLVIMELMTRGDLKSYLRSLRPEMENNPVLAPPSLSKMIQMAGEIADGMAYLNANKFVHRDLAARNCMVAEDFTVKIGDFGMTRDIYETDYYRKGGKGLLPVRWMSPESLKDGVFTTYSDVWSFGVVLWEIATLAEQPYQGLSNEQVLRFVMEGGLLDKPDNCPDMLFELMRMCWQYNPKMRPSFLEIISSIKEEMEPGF
Source text: • TITLE: 96-well assay for inhibitors of IGF1-receptor kinase activity • SHORT TITLE: IGF1-R kinase assay • PURPOSE: Identify inhibitors of IGF-1 receptor kinase activity • MATERIALS AND METHODS: Overview: This is a 96-well FRET (Lance) tyrosine kinase assay. • Materials: • Purified GST-IGFR; purified Bis-IGFR and Tris-IGFR; expressed in ExpresSF insect cells. Bis and Tris IGFR are made by phosphorylating the IGFR in the presence of ATP and Mg2+, followed by thrombin cleavage to remove the GST-thrombin cleavage site, and purification by HPLC. The Bis and tris IGFR are phosphorylated on two (bis) or all three tyrosines (tris) in the activation loop. • Biotinylated peptide with a sequence corresponding to the sequence surrounding the autophosphorylation sites in IGF1-R Biotin-NH2-[…]-OH (Anaspec) • Europium-conjugated phosphotyrosine antibody (PT66) (Perkin-Elmer). • Surelight APC (Perkin-elmer) • Plates: 96-well Assay plates (polypropylene plates, natural color) • 96-well-Lance plates (Microfluor 2 black plates; Cat # 7205; Thermolabsystems. • ATP: (Amersham Pharmacia Cat # 27-2056-01), 100 mM stock. • IGFR Lance Protocol (96-well format) • Procedure: • Reagents: • Kinase Buffer (10×): • 0.5 M Hepes, pH 7.5 rt • 0.1 M MgCl2 • Quench Buffer (to be added straight, 1:1, to r×n mix): • 50 mM Hepes, pH 7.5 rt • 50 mM EDTA • Lance Detection Buffer: • 20 mM Tris-HCl, pH 7.5 rt • 0.15 M NaCl-150 • 150 ug/ml BSA (Sigma Cat# A-7284) • Eu-labeled phosphotyrosine antibody PT66 (Perkin-Elmer): 1:4000 dilution of 200 μg/ml stock • Streptavidin-APC (Perkin Elmer): 1/250 (4 microgram/ml final) • ATP (Amersham Pharmacia cat #27-2056-01) 100 mM stock: Dilute to 1 mM (10×) in water. […] Transfer 12.5[…] of the kinase reaction to the antibody detection plate. Allow antibody to react for 1 h at rt in the dark. Then read in Victor with an excitation filter of 340 nm and an emission filter of 665 nm. • Compound additions: • When Example compounds are tested, they are added from a 10% DMSO/50 mM Hepes (pH 7.5) 10× stock. 5 microliters of compound in this buffer are added to the enzyme-peptide-buffer mix. After 10′ incubation at room temperature, ATP is added to start the reaction. A no ATP background control is included in the assay. • […] OF RESULTS: Data are analyzed as follows: % Inhibition={[Sample cpm−Bkg cpm]/[No cmpd cpm−Bkg cpm]}×100%. The biological activity of representative Examples of the invention is reported in Table VII as: 0.2 µM≦x≦10 µM or % inhibition@10 µM.

- IC50 (cyclin D1/cdk 4 enzyme): 15 µM
- IC50 (cyclin E/CDK2 enzyme): > 23 µM
- IC50 (cyclin B/CDK1 enzyme): > 23 µM
- melting point: 223 to 224 °C
- IC50 (SK-UT-1B): 17 µM
Compound: CN(C(=O)CN1CCCCC1)c1ccc(N/C=C2\C(=O)NC(=O)c3ccccc32)cc1 [Example 29, N-(4-{[(Z)-(1,3-Dioxo-2,3-dihydroisoquinolin-4(1H)-ylidene)methyl]amino}phenyl)-1,3(2H,4H)-dione N-Methyl-2-piperidin-1-ylacetamide]
- IC50 (BT474): 21 µM
- IC50 (HCT-116): 21 µM
- IC50 (LoVo): 19 µM
- IC50 (MCF-7): 12 µM

- IC50 (cyclin D1/cdk 4 enzyme): > 50 µM
- IC50 (cyclin E/CDK2 enzyme): 2.4 µM
- IC50 (cyclin B/CDK1 enzyme): > 50 µM
- melting point: 258 to 259 °C
- IC50 (SK-UT-1B): > 50 µM
Compound: O=C1NC(=O)c2ccc(Br)cc2/C1=C/NCc1ccncc1 [Example 31, (4Z)-6-Bromo-4-{[(pyridin-4-ylmethyl)amino]methylene}isoquinoline-1,3(2H,4H)-dione]
- IC50 (BT474): 41 µM
- IC50 (HCT-116): 31 µM
- IC50 (LoVo): > 50 µM
- IC50 (MCF-7): > 50 µM

- IC50 (cyclin D1/cdk 4 enzyme): 1.1 µM
- IC50 (cyclin E/CDK2 enzyme): > 50 µM
- IC50 (cyclin B/CDK1 enzyme): > 50 µM
- melting point: 129 to 130 °C
- IC50 (SK-UT-1B): 11 µM
Compound: COC[C@H]1CCCN1Cc1ccc(N/C=C2\C(=O)NC(=O)c3ccc(Br)cc32)cc1 [Example 38]
- IC50 (BT474): 2.8 µM
- IC50 (HCT-116): 7.3 µM
- IC50 (LoVo): 7.9 µM
- IC50 (MCF-7): 3.7 µM

- IC50 (IGF1-receptor kinase): 0.361 µM
Compound: CC(=O)c1cccc(Nc2ccc3c(c2)/C(=C/Nc2ccc(N4CCN(C)CC4)cc2)C(=O)NC3=O)c1 [Example 881]

- IC50 (IGF1-receptor kinase): 4.47 µM
Compound: Cc1ccccc1Nc1ccc2c(c1)/C(=C/Nc1ccc(CN3CCCCC3)cc1)C(=O)NC2=O [Example 882, 4-[(4-piperidin-1-ylmethyl-phenylamino)-methylene]-6-o-tolylamino-4H-isoquinoline-1,3-dione]

- inhibition at 10 µM (IGF1-receptor kinase): 33%
Compound: Nc1cccc(Nc2ccc3c(c2)/C(=C/Nc2ccc(CN4CCCCC4)cc2)C(=O)NC3=O)c1 [Example 883, (4Z)-6-[(3-aminophenyl)amino]-4-({[4-(piperidin-1-ylmethyl)phenyl]amino}methylene)isoquinoline-1,3(2H,4H)-dione]

- inhibition at 10 µM (IGF1-receptor kinase): 20%
Compound: Cc1cccc(Nc2ccc3c(c2)/C(=C/Nc2ccc(CN4CCCCC4)cc2)C(=O)NC3=O)c1 [Example 884, (4Z)-6-[(3-methylphenyl)amino]-4-({[4-(piperidin-1-ylmethyl)phenyl]amino}methylene)isoquinoline-1,3(2H,4H)-dione]

- IC50 (IGF1-receptor kinase): 0.36 µM
Compound: CC(=O)c1cccc(Nc2ccc3c(c2)/C(=C/Nc2ccc(CN4CCCCC4)cc2)C(=O)NC3=O)c1 [Example 885, (4Z)-6-[(3-acetylphenyl)amino]-4-({[4-(piperidin-1-ylmethyl)phenyl]amino}methylene)isoquinoline-1,3(2H,4H)-dione]

- inhibition at 10 µM (IGF1-receptor kinase): 32%
Compound: O=C1NC(=O)c2ccc(Nc3cccc(C(F)(F)F)c3)cc2/C1=C/Nc1ccc(CN2CCCCC2)cc1 [Example 886, (4Z)-4-({[4-(piperidin-1-ylmethyl)phenyl]amino}methylene)-6-{[3-(trifluoromethyl)phenyl]amino}isoquinoline-1,3(2H,4H)-dione]

- IC50 (IGF1-receptor kinase): 0.208 µM
Compound: O=C1NC(=O)c2ccc(Nc3ccccc3)cc2/C1=C/Nc1ccc(CN2CCCCC2)cc1 [Example 887, (4Z)-6-anilino-4-({[4-(piperidin-1-ylmethyl)phenyl]amino}methylene)isoquinoline-1,3(2H,4H)-dione]

- inhibition at 10 µM (IGF1-receptor kinase): 14%
Compound: CN(C)c1ccc(Nc2ccc3c(c2)/C(=C/Nc2ccc(CN4CCCCC4)cc2)C(=O)NC3=O)cc1 [Example 888, (4Z)-6-{[4-(dimethylamino)phenyl]amino}-4-({[4-(piperidin-1-ylmethyl)phenyl]amino}methylene)isoquinoline-1,3(2H,4H)-dione]

- IC50 (IGF1-receptor kinase): 0.394 µM
Compound: Cc1ccc(Nc2ccc3c(c2)/C(=C/Nc2ccc(CN4CCCCC4)cc2)C(=O)NC3=O)cc1 [Example 889, (4Z)-6-[(4-methylphenyl)amino]-4-({[4-(piperidin-1-ylmethyl)phenyl]amino}methylene)isoquinoline-1,3(2H,4H)-dione]

- inhibition at 10 µM (IGF1-receptor kinase): 47%
Compound: O=C1NC(=O)c2ccc(Nc3ccc(Cl)cc3)cc2/C1=C/Nc1ccc(CN2CCCCC2)cc1 [Example 890, (4Z)-6-[(4-chlorophenyl)amino]-4-({[4-(piperidin-1-ylmethyl)phenyl]amino}methylene)isoquinoline-1,3(2H,4H)-dione]

- IC50 (IGF1-receptor kinase): 0.575 µM
Compound: COc1ccccc1Nc1ccc2c(c1)/C(=C/Nc1ccc(CN3CCCCC3)cc1)C(=O)NC2=O [Example 891]

- IC50 (IGF1-receptor kinase): 0.954 µM
Compound: COc1cccc(Nc2ccc3c(c2)/C(=C/Nc2ccc(CN4CCCCC4)cc2)C(=O)NC3=O)c1 [Example 892, (4Z)-6-[(3-methoxyphenyl)amino]-4-({[4-(piperidin-1-ylmethyl)phenyl]amino}methylene)isoquinoline-1,3(2H,4H)-dione]

- IC50 (IGF1-receptor kinase): 0.708 µM
Compound: N#Cc1cccc(Nc2ccc3c(c2)/C(=C/Nc2ccc(CN4CCCCC4)cc2)C(=O)NC3=O)c1 [Example 893, 3-{[(4Z)-1,3-dioxo-4-({[4-(piperidin-1-ylmethyl)phenyl]amino}methylene)-1,2,3,4-tetrahydroisoquinolin-6-yl]amino}benzonitrile]

- IC50 (IGF1-receptor kinase): 1.11 µM
Compound: NC(=O)c1ccc(Nc2ccc3c(c2)/C(=C/Nc2ccc(CN4CCCCC4)cc2)C(=O)NC3=O)cc1 [Example 894, 4-{[(4Z)-1,3-dioxo-4-({[4-(piperidin-1-ylmethyl)phenyl]amino}methylene)-1,2,3,4-tetrahydroisoquinolin-6-yl]amino}benzamide]

- IC50 (IGF1-receptor kinase): 7.22 µM
Compound: O=C1NC(=O)c2ccc(Nc3ccc4c(c3)CCC4)cc2/C1=C/Nc1ccc(CN2CCCCC2)cc1 [Example 895, (4Z)-6-(2,3-dihydro-1H-inden-5-ylamino)-4-({[4-(piperidin-1-ylmethyl)phenyl]amino}methylene)isoquinoline-1,3(2H,4H)-dione]

- IC50 (IGF1-receptor kinase): 0.83 µM
Compound: O=C1NC(=O)c2ccc(Nc3ccc4c(c3)OCO4)cc2/C1=C/Nc1ccc(CN2CCCCC2)cc1 [Example 896, (4Z)-6-(1,3-benzodioxol-5-ylamino)-4-({[4-(piperidin-1-ylmethyl)phenyl]amino}methylene)isoquinoline-1,3(2H,4H)-dione]
